Test results reported in article PMC8427442 (Frontiers in Pharmacology, 2021).
pEC50, pIC50: −log10 of the molar value. Several values for one entry are separate records, joined by “and”; a condition that tells them apart may be missing. Equal entries are not always repeated.

How the values were obtained:
SARS-CoV-2 3CLpro = SARS-CoV-2 3CLpro (Severe acute respiratory syndrome coronavirus 2, UniProt P0DTD1); test: Protease activity assay with IQF peptide substrate, dose-response; format: biochemical; settings: for pIC50: IC50 against SARS-CoV-2 3CLpro, 0.125 µM 3CLpro, 1 h preincubation at 37°C, 1.25 µM IQF peptide substrate, 3 h, N = 3, mean ± SEM; for relative SARS-CoV-2 3CLpro activity (down from 100%): compound at 12.5 µM, data not shown
SARS-CoV 3CLpro = SARS-CoV 3CLpro (Severe acute respiratory syndrome coronavirus, UniProt P0C6X7); format: biochemical
IL-6, IL-1β, IL-8 mRNA = test: Proinflammatory gene mRNA by RT-PCR in LPS-stimulated A549 cells; format: cell-based, human; settings: 20 µM; for potency in reducing the levels of the four proinflammatory factors (TNF-α, IL-6, IL-1β, IL-8), compared to UJ: LPS-stimulated A549 cells
SARS-CoV-2 = test: Plaque assay in SARS-CoV-2-infected Vero E6 cells; format: cell-based
TNF-α = TNF-α protein level by western blot in LPS-stimulated A549 cells; format: cell-based, human; settings: 20 µM, 1 h before 10 μg/ml LPS, 24 h
Excerpt: For western blot analysis, an equal amount of the samples were resolved by SDS-PAGE, followed by transfer to PVDF membranes, following the protocol published previously ([Chiang et al., 2020]). Antibodies against TNF-α (GTX110520) and β-actin (GTX109639) were purchased from GeneTex, Taiwan. HRP-conjugated secondary antibodies were from Jackson ImmunoResearch Laboratories, Inc., United States. WesternBright® ECL kits were used for protein visualization (Advansta Inc., United States). Levels of protein expression were quantified in Fiji ([Schindelin et al., 2012]).
Human alveolar basal epithelial A549 cells have been used to investigate several lung diseases at the cellular level, including endotoxin-induced acute pneumonia ([Zhang J. et al., 2020]). To evaluate the anti-inflammatory effect of UJ, A549 cells were induced with lipopolysaccharide (LPS) for 24 h with or without treatment with UJ. Dexamethasone (Dex), an anti-inflammatory agent ([Chen et al., 2021]), was included as a positive control. […] In addition, the expression levels of proinflammatory genes, including interleukin 1β (IL-1β), IL-6 and IL-8 increased by 1.5- to 2-fold in LPS-stimulated A549 cells, compared with the control group (Figures 4B–D). […] Compared to the positive control (Dex at 5 µM), UJ treatment at 20 µM gave rise to a greater decrease in the TNF-α protein level and IL-6 and IL-8 mRNA. […]

in vitro = settings: African green monkey, half-maximal cytotoxic concentration (CC50)
[1] = 1 h before 10 μg/ml LPS, 24 h, A549 cells

| Structure (SMILES) | pIC50 (SARS-CoV-2 3CLpro) | relative SARS-CoV-2 3CLpro activity (down from 100%) (SARS-CoV-2 3CLpro) | relative SARS-CoV 3CLpro activity (down from 100%) (SARS-CoV 3CLpro) | potency in reducing the levels of the four proinflammatory factors (TNF-α, IL-6, IL-1β, IL-8), compared to UJ (IL-6, IL-1β, IL-8 mRNA) | other results |
| --- | --- | --- | --- | --- | --- |
| COc1c(-c2ccc(O)cc2)oc2cc(O)cc(O)c2c1=O [Ikae, isokaempferide] | < 4.70 and 4.40 | 60–70% | 60–70% | relatively moderate potency |  |
| O=c1c(O)c(-c2ccc(O)cc2)oc2cc(O)cc(O)c12 [Kae, kaempferol] | < 4.70 and 4.66 | 60–70% | 60–70% | relatively moderate potency |  |
| O=c1cc(-c2ccc(O)c(O)c2)oc2cc(O)cc(O)c12 [Lu, luteolin] | < 4.70 and 4.69 |  |  |  |  |
| CCC(CC)COC(=O)[C@H](C)N[P@](=O)(OC[C@H]1O[C@@](C#N)(c2ccc3c(N)ncnn23)[C@H](O)[C@@H]1O)Oc1ccccc1 [Rem, Remdesivir] |  |  |  |  | inhibition at 2 µM (SARS-CoV-2; Severe acute respiratory syndrome coronavirus 2, Vero C1008, 2 µM, Vero E6 cells, plaque assay, read-out: inhibition of SARS-CoV-2 infection): ~95% |
| C=C1CCCC(C)(C)[C@@H]1Cc1c(O)cc2oc(-c3ccc(O)c(O)c3)cc(=O)c2c1O [UJ, ugonin J] | 6.03 and ~6.03 | about 15% | about 15% |  | reduction of TNF-α protein expression level (TNF-α): more than 2 fold; downregulation of IL-1β mRNA expression level (IL-6, IL-1β, IL-8 mRNA; [1]): more than 1 fold; downregulation of IL-6 mRNA expression level (IL-6, IL-1β, IL-8 mRNA; [1]): more than 1 fold; downregulation of IL-8 mRNA expression level (IL-6, IL-1β, IL-8 mRNA; [1]): more than 1 fold; pEC50 (SARS-CoV-2; Severe acute respiratory syndrome coronavirus 2, Vero C1008, Vero E6 cells, 100 PFU, 1 h pretreatment, 3 days, N = 3, mean ± SEM, read-out: half-maximal effective concentration (EC50) against SARS-CoV-2 infection): ~5.62; prevention of SARS-CoV-2 infection (SARS-CoV-2; pretreatment at 10 µM, Vero E6 cells, plaque assay): near complete prevention; CC50 at 48 h (in vitro): ~783 µM |
